The source of these data is patent US20020049151A1, “Therapeutic approaches to diseases by suppression of the NURR subfamily of nuclear transcription factors” (priority 2000, published 2002).

Ends that are not written are not given here.

For experiment [1], the system named is NURR1 mRNA. Put plainly: Northern blot of NURR1 mRNA in primary synoviocytes. The settings on record: for effect on IL-1β-induced NURR1 mRNA: IL-1β 10 ng/ml, indomethacin 2 μM; for NURR1 mRNA levels after stimulation: 20 ng/ml PMA, 10 ng/ml TNFα, IL-1β, IL-6, 1 μM PGE2, CRH. It counts as cell-based, human. Here is the method:
(§1) Regulation of gene expression by the protein kinase A and C pathways represent important signaling events in RA synoviocytes (Ben-Av et al., 1995; Crofford et al., 1994; Firestein and Manning, 1999). […] To investigate the involvement of the protein kinase C signaling pathways in NURR regulation, synoviocytes were treated with phorbal myristic acetate (PMA). […] In contrast, dexamethasone had little effect on forskolin- or PMA-induced NUR77 levels.
(§2) In FIG. 4 total RNA was extracted and northern blot analysis was performed. Filters were hybridized with a cDNA for NURR1 or NUR77 and also with GAPDH to control for loading and transfer. Synovial explants were left untreated [C] or incubated with 10^−8M CRH for the indicated times. (FIG. 4A) Confluent monolayers of primary synoviocytes were left untreated [C] or pretreated with 10^−8M dexamethasone (DEX) for 2 h prior to the addition of 25μM forskolin (FOR) or 20 ng/ml of phorbal myristic acetate (PMA). (FIG. 4B)
Therefore the pathological importance of the NURR transcription factors in inflammatory joint disease was further examined by determining the ability of pro-inflammatory agonists to regulate NURR transcript levels in primary synoviocytes and synovium explant tissue (FIG. 6).
(§3) For FIG. 6 each membrane was reprobed with a GAPDH cDNA to control for loading and transfer. NURR1 mRNA levels were measured by northern analysis using total RNA extracted from synoviocytes left untreated [C] or cultured for the time indicated with (A) TNFα (10 ng/ml) in the presence or absence of pre-treatment with 10^−8M dexamethasone (DEX). (B) IL-1β(10 ng/ml) in the presence or absence of pretreatment with 2 μM indomethacin (INDO) or 10^−8M DEX. (C) or synovial explants cultured with IL-6 (10 ng/ml). (D) 1 μM PGE2. (E) 25 μM forskolin (FOR) or […] for 1h in the absence or presence of 5 µg/ml cycloheximide (CHX).
Northern analysis of primary RA synoviocytes were untreated (lane 1) or treated for 1 hour with TNFα (lane 2), IL-1β (lane 3), and PGE2 (lane 4). TNFα and IL-1β were used at a concentration of 10 ng/mL and PGE2 was at a concentration of 10^-6 M.
(§4) Total RNA was isolated from cultured primary synoviocytes or synovial explants. RNA was quantitated by UV absorption and 10 μg of total RNA were electrophoresed on a standard northern gel and transferred to nylon membrane (BioRad, Richmond, Calif.). NURR1 and NUR77 cDNA probes (Murphy and Conneely, 1997), spanning the amino terminal region to avoid cross-hybridization, were radiolabeled to a high specific activity using [α-^32P] dCTP and a random primer labeling system (Promega, Madison, Wis.). Blots were exposed to film at −80° C. using intensifying screens and autoradiographic intensity was quantitated using an imaging densitometer.

The test system of experiment [2] is NUR77 mRNA. Put plainly: Northern blot of NUR77 mRNA in primary synoviocytes. The settings on record: 25 μM forskolin, 20 ng/ml PMA, CRH. In kind it is cell-based, human. Here is the method: as §1
In FIG. 4 total RNA was extracted and northern blot analysis was performed. Filters were hybridized with a cDNA for NURR1 or NUR77 and also with GAPDH to control for loading and transfer. Synovial explants were left untreated [C] or incubated with 10^−8M CRH for the indicated times. […]
Dexamethasone (10^−8M) inhibited the TNFα, IL-1β (FIGS. 6A and B) and PGE2-stimulated NURR1 MRNA in synoviocytes and CRH-induced NURR1 expression in synovium explants. […] For each northern blot shown in FIG. 6, NUR77 mRNA levels were also analyzed. […]
Total RNA was isolated from cultured primary synoviocytes or synovial explants. RNA was quantitated by UV absorption and 10 μg of total RNA were electrophoresed on a standard northern gel and transferred to nylon membrane (BioRad, Richmond, Calif.). […] Blots were exposed to film at −80° C. using intensifying screens and autoradiographic intensity was quantitated using an imaging densitometer.

In a further experiment the test system is CRH R1. The settings on record: cited from earlier work.
In experiment [3] the test system is NUR77 mRNA. Put plainly: Northern blot of NUR77 mRNA in synovium explants. In kind it is cell-based, human. The settings on record: CRH 10^−8 M. Here is the method: (§5) To determine whether the NURR subfamily contribute to CRH signaling in a pathological context, freshly excised RA (FIG. 4A) and PsA synovium explants were incubated with CRH (10^−8 M) and examined for its ability to induce expression of NURR1 and NUR77 transcripts. […] Furthermore, analysis of synovium explants indicates higher endogenous and CRH-inducible NURR1 mRNA compared to NUR77 transcript levels.
as §2, §4

The test system of experiment [4] is NURR1 mRNA. Put plainly: Northern blot of NURR1 mRNA in synovium explants. In kind it is cell-based, human. The settings on record: CRH 10^−8 M. Here is the method: as §5, §2, §3, §4
Setting [5] is: dexamethasone 10^−8M, cycloheximide 5 µg/ml.

As to `C[C@@H]1C[C@@H]([C@H](O)CC2CC(=O)NC(=O)C2)C(=O)[C@@H](C)C1` [Cycloheximide, cycloheximide], in the experiment on NURR1 mRNA [1] (25 μM forskolin, dexamethasone 10^−8M pre-treatment 2 h, cycloheximide 5 µg/ml), the “effect on forskolin-induced NURR1 expression” value was “robustly enhanced”. Further, the “effect on IL-1β-induced NURR1 mRNA” value with NURR1 mRNA [1] (dexamethasone 10^−8M) was “robustly enhanced”. Also, in the experiment on NURR1 mRNA [1] (TNFα 10 ng/ml, dexamethasone 10^−8M), the “effect on TNFα-stimulated NURR1 mRNA” value is on record as “robustly enhanced”. Further, the “basal / endogenous NURR1 expression” value with NURR1 mRNA [1] (setting [5]) was “increased”. In addition, the “effect on PGE2-stimulated NURR1 mRNA” value in the experiment with NURR1 mRNA [1] (dexamethasone 10^−8M, cycloheximide 5 µg/ml, 1M PGE2 for 1h) is on record as “robustly enhanced”.

`CCCCCCCCCCCCCC(=O)O[C@@H]1[C@@H](C)[C@@]2(O)[C@@H](C=C(CO)C[C@]3(O)C(=O)C(C)=C[C@@H]23)[C@@H]2C(C)(C)[C@]12OC(C)=O` [PMA, phorbal myristic acetate, reference compound]: the “NUR77 mRNA levels after stimulation” value in the experiment on NUR77 mRNA [2] is “modestly up-regulated”. For the same compound, the “NURR1 mRNA levels after stimulation” value in the experiment on NURR1 mRNA [1] (25 μM forskolin) is “no stimulatory effects”.

Turning to `CCCCN(CC)c1nc(C)nc2c1c(C)c(C)n2-c1c(C)cc(C)cc1C` [antalarmin], in the experiment on CRH R1, the “CRH antagonism at sites of inflammation in vivo” value is listed as “clinically effective CRH antagonist at sites of inflammation”.

Take `C[C@@H]1C[C@H]2[C@@H]3CCC4=CC(=O)C=C[C@]4(C)[C@@]3(F)[C@@H](O)C[C@]2(C)[C@@]1(O)C(=O)CO` [dexamethasone]: the “basal / endogenous NURR1 expression” value in the experiment on NURR1 mRNA [1] (setting [5]) is given as “no effect”.

In the case of `COc1ccc2c(c1)c(CC(=O)O)c(C)n2C(=O)c1ccc(Cl)cc1` [indomethacin], the “effect on IL-1β-induced NURR1 mRNA” value in the experiment with NURR1 mRNA [1] (dexamethasone 10^−8M) was “not blocked”.

For “CRH: Corticotropin Releasing Hormone, a major regulator of the hypothalamic pituitary axis (SEEPPISLDLTFHLLREVLEMARAEQLAQQAHSNRKLMEII; ends and bridges not checked; UniProt P06850 154-194, looked up)”, in the experiment with NUR77 mRNA [2], the “NUR77 mRNA levels after stimulation” value is “not observed”. Also, the “NUR77 mRNA induction in synovium explants” value in the experiment on NUR77 mRNA [3] (RA and PsA synovium explants) is “rapidly induced”. Moreover, in the experiment with NUR77 mRNA [3] (synovium explants), the “time to NUR77 mRNA induction” value was ≤ 1 h and the “time to decline of NUR77 mRNA to basal levels” value is on record as ≤ 3 h. In addition, in the experiment on NURR1 mRNA [4] (RA and PsA synovium explants, IL-6 10 ng/ml), the “NURR1 mRNA induction in synovium explants” value was “rapidly induced”. For the same compound, in the experiment on NURR1 mRNA [4] (synovium explants), the “time to NURR1 mRNA induction” value is listed as ≤ 1 h and the “time to decline of NURR1 mRNA to basal levels” value was ≤ 3 h. For the same compound, the “NURR1 mRNA levels after stimulation” value in the experiment on NURR1 mRNA [1] (25 μM forskolin) is on record as “not observed”.
